Measurements taken from ChEMBL document CHEMBL1201862, “PubChem BioAssay data set” (2004).
The source made the active and inactive calls.

Experiments:
[1] = tested on: Streptococcus sp. 'group A'; experiment: growth inhibition of control SK(-) GAS strain, dose response, counter-screen for streptokinase expression inhibitor project, luminescence, kanamycin, BacTiterGlo, confirmation (AID 1900); format: functional, organism-based
[2] = inhibitors of intracellular T. cruzi replication, confirmation, NIH3T3 host cells, beta-gal luminescence (AID 2044); format: functional, cell-based;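 further: intracellular parasites grown in NIH/3T3 mouse fibroblasts as host cells; luminescent beta-galactosidase reporter signal from transgenic T. cruzi replicating inside host cells; inhibitors lower the luminescence signal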
[3] = cytotoxicity toward NIH3T3 fibroblasts, dose response, counter-screen, cell-based, ATP luminescence, mouse fibroblasts (AID 2010); format: functional;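 further: cells exposed to compound for about 90 hours before reading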
[4] = tested on: Streptococcus; experiment: Group A Streptococcus viability loss, dose response, counter-screen for streptokinase expression inhibitor project, luminescence, BacTiterGlo (AID 1915); format: functional, organism-based;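 further: potency for reduction of bacterial viability or growth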
[5] = HepG2 cell cytotoxicity, dose response, cytotoxicity control, ATP luminescence, cherry-pick, activator set 2 (AID 1053143); format: functional, cell-based
[6] = inhibitors of Vif binding to APOBEC3G peptide, primary screen, biochemical, TR-FRET, GST-Vif 1-94, biotin-A3G peptide, dose response retest (AID 1117319); format: functional;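 further: TR-FRET signal of purified GST-Vif binding a biotinylated A3G peptide; inhibitors lower the FRET signal by blocking Vif and A3G binding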
[7] = biological target: T1, Leucine aminopeptidase (Plasmodium falciparum 3D7, UniProt Q8IL11); experiment: P. falciparum M17LAP inhibitors, primary screen, biochemical, fluorogenic H-Leu-NHMec substrate, 1536-well (AID 1619); format: functional
T1 sequence (Q8IL11 whole entry): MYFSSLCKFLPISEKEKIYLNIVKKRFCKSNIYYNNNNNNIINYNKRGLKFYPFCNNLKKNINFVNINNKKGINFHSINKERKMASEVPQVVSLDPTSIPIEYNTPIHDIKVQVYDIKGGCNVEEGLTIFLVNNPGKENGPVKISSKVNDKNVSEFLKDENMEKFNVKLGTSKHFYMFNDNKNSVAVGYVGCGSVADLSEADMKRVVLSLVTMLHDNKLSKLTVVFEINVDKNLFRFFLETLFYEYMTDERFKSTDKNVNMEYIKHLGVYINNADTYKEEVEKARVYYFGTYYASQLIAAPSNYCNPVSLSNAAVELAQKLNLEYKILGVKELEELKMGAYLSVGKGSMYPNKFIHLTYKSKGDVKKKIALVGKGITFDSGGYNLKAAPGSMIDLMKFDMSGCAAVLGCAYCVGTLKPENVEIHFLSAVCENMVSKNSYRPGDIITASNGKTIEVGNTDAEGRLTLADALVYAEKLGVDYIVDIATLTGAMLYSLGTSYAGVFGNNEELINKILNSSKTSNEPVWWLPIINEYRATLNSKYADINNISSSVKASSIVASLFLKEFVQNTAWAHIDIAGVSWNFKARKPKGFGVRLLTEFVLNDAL

[8] = Artemis endonuclease inhibitor potency, dose response, biochemical, fluorescence intensity (AID 720701); format: functional;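 further: Artemis endonuclease enzyme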
[9] = biological target: T2, Cytochrome P450 1A2 (Homo sapiens, UniProt P05177);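 further: PubChem cytochrome P450 panel assay, CYP1A2 panel member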
T2 sequence (P05177 whole entry): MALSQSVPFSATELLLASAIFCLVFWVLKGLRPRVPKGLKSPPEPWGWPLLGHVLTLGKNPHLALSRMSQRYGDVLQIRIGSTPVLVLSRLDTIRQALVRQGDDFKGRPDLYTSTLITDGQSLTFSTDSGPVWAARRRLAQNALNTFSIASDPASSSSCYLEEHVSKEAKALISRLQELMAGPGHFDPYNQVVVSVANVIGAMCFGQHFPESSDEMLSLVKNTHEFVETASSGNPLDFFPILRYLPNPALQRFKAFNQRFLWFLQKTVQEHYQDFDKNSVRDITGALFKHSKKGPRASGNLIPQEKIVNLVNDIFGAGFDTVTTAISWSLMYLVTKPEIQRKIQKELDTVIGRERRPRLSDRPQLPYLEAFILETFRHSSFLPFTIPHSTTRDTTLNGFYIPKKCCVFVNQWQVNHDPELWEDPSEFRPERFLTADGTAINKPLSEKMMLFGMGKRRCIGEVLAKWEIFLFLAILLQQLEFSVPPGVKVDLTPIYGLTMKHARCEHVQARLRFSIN

[10] = biological target: Cytochrome P450 3A4 (Homo sapiens, UniProt P08684);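 further: CYP3A4 tested as one member of a cytochrome P450 panel screen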
[11] = Luminescence Cell-Based Dose Response to Identify Activators of 5'UTR Stem-Loop Driven Prion Protein mRNA Translation in H4-C Neuroglioblastoma Cells. [Related pubchem assays: 1829 (Project Summary), 1814 (Primary HTS)]; format: functional
[12] = Luminescence Cell-Based Dose Response HTS to Identify Activators of Luciferase Translation or Activity in H4 […] Cells. [Related pubchem assays: 1829 (Project Summary), 1814 (Primary HTS)]; format: functional
[13] = Luminescence Cell-Based Dose Response to Identify Activators of Luciferase Translation or Activity in H4-C Neuroglioblastoma Cells. [Related pubchem assays: 1829 (Project Summary), 1814 (Primary HTS)]; format: functional
[14] = Luminescence Cell-Based Dose Confirmation to Identify Activators of 5'UTR Stem-Loop Driven Alpha-Synuclein mRNA Translation in H4 Neuroglioblastoma Cells. [Related pubchem assays: 1829 (Project Summary), 1814 (Primary HTS)]; format: functional
[15] = inhibitors of non-replicating M. tuberculosis, dose response, luciferase, dry powder (AID 651619); format: functional; settings: Mycobacterium tuberculosis
[16] = HEK293T cell cytotoxicity, dose response, cytotoxicity control, CellTiter-Glo luminescence, dry powder, set 6 (AID 651949); format: functional, cell-based; settings: HEK293
[17] = inhibitors of non-replicating M. tuberculosis, dose response, luciferase, dry powder (AID 651620); format: functional; settings: Mycobacterium tuberculosis
[18] = growth inhibition of replicating M. tuberculosis, dose response, counter-screen, dry powder, IC90 (AID 651617); format: functional; settings: Mycobacterium tuberculosis
[19] = biological target: Cytochrome P450 2C9 (Homo sapiens, UniProt P11712)
[20] = biological target: Potassium channel subfamily K member 9 (Homo sapiens, UniProt Q9NPC2); experiment: TASK3 (KCNK9) channel inhibitors, thallium flux, SAR follow-up, selectivity assay for TASK1 inhibitor project, cell-based, FluxOR thallium flux, concentration-response (AID 652211); format: functional;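 further: potency is for inhibitors of the channel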
[21] = biological target: Potassium channel subfamily K member 3 (Homo sapiens, UniProt O14649); experiment: TASK1 (KCNK3) potassium channel inhibitors, SAR follow-up, CHO cells, FluxOR thallium flux (AID 652212); format: functional
[22] = biological target: COUP transcription factor 2 (Homo sapiens, UniProt P24468); experiment: Luminescence-based cell-based high throughput dose response assay to identify inhibitors of COUP-TFII (NR2F2).; format: functional;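 further: HEK293 cells transiently cotransfected with COUP-TFII expression vector and reporter; luciferase reporter luminescence driven by COUP-TFII from the pX2-168 reporter plasmid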
[23] = HEK293T cytotoxicity, dose response, cytotoxicity control for miR-122 modulator project, cell-based, inhibitor set, cherry-pick, set 2 (AID 720697); format: functional
[24] = biological target: Paired box protein Pax-8 (Homo sapiens, UniProt Q06710); experiment: inhibitors of PAX8-driven TPO luciferase reporter, dose response, RMG-I cells, cherry-pick (AID 687027); format: functional, cell-based;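 further: luciferase reporter driven by Pax8 target thyroperoxidase promoter measured by SteadyGlo luminescence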
[25] = IOSE-T80 ovarian epithelial cell cytotoxicity, dose response, cytotoxicity control for PAX8 inhibitor project, plate reader, dry powder samples (AID 743045); format: functional, cell-based
[26] = inhibitors of PGC1a acetylation in cells, dose response, cell-based, cherry-picked samples (AID 720514); format: functional;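 further: potency may reflect raised or lowered acetylation signal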
[27] = NIH:OVCAR-3 ovarian cancer cell cytotoxicity, dose response, PAX8 inhibitor project, plate reader, dry powder samples (AID 743044); format: functional, cell-based
[28] = non-specific cell cytotoxicity, dose response, cytotoxicity control for PAX8 inhibitor project, plate reader, dry powder samples (AID 743021); format: functional, cell-based
[29] = cytotoxicity in OVCAR8 ovarian cancer cells, dose response, PAX8 project, cell-based, plate reader, dry powder samples (AID 743197); format: functional; settings: OVCAR-8
[30] = IGROV1 ovarian cancer cell cytotoxicity, dose response, PAX8 inhibitor project, plate reader, dry powder samples (AID 743043); format: functional, cell-based; settings: IGROV-1
[31] = P. falciparum Dd2 growth inhibitors, dose response, SYBR Green, dry powder samples, set 9 (AID 1159568); format: functional, cell-based
[32] = half-maximal inhibitory concentration for glucagon-like peptide-1 release, STC-1 cell line, dose-response (AID 1117345); format: functional, cell-based
[33] = Glucagon-like peptide 1 release potency, NCI-H716 cell line, dose-response, half-maximal inhibitory concentration (AID 1117344); format: functional, cell-based

Sequence of Paired box protein Pax-8 (Q06710 whole entry): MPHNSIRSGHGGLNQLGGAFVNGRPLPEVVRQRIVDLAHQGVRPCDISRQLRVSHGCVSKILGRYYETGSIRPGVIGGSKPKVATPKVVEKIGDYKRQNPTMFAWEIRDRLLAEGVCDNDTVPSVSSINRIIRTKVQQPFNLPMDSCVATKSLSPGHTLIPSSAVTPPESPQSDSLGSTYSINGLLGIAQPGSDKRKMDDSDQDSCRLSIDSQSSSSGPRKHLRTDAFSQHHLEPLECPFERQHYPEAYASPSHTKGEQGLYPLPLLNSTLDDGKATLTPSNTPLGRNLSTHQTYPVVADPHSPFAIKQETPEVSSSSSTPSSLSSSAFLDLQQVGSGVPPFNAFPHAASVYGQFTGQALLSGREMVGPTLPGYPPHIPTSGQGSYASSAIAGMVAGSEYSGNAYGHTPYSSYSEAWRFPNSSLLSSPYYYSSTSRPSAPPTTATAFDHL
Sequence of Potassium channel subfamily K member 9 (Q9NPC2 whole entry): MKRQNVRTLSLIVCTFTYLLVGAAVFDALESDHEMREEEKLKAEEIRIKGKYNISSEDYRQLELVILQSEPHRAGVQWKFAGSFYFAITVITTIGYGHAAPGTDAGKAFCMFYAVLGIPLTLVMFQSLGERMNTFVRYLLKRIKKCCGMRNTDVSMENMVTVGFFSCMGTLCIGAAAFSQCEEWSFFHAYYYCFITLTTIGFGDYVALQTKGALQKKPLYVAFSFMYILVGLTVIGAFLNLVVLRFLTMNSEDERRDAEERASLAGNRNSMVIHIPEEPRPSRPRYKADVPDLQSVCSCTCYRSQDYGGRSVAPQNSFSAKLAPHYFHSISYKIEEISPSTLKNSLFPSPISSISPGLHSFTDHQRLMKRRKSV
Sequence of COUP transcription factor 2 (P24468 whole entry): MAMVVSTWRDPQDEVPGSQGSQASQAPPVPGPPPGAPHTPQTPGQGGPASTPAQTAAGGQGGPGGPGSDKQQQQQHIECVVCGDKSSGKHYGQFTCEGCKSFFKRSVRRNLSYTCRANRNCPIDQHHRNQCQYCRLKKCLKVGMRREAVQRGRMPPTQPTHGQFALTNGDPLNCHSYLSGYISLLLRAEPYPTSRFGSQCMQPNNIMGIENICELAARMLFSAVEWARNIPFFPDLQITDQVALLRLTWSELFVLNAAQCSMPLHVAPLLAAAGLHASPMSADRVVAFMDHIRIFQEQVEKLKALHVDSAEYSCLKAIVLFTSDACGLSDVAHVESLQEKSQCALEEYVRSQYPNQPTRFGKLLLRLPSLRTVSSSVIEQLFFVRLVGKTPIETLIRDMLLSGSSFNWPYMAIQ
Sequence of Cytochrome P450 2C9 (P11712 whole entry): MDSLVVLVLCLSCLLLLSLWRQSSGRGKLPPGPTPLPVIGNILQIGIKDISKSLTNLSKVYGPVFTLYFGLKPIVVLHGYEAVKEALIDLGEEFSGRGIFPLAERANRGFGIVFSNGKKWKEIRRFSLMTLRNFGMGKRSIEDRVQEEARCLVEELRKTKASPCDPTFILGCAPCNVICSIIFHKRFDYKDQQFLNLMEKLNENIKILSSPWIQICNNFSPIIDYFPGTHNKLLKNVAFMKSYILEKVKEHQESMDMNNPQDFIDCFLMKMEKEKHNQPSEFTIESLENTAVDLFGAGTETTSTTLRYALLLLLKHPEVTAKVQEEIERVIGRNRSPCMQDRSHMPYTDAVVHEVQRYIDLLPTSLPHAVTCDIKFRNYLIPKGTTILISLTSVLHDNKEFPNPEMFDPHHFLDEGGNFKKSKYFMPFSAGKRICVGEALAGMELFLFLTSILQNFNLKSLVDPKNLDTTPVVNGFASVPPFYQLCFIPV
Sequence of Potassium channel subfamily K member 3 (O14649 whole entry): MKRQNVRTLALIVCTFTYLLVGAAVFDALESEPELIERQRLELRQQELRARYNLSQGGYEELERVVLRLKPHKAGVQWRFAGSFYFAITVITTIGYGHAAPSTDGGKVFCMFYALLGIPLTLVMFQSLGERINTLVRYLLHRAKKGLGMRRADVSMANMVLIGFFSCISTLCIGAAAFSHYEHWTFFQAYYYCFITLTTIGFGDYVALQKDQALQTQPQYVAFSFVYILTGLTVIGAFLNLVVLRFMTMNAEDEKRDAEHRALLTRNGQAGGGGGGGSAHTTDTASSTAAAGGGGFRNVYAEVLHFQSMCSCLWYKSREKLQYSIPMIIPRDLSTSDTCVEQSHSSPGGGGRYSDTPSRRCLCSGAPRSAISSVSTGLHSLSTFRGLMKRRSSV
Sequence of Cytochrome P450 3A4 (P08684 whole entry): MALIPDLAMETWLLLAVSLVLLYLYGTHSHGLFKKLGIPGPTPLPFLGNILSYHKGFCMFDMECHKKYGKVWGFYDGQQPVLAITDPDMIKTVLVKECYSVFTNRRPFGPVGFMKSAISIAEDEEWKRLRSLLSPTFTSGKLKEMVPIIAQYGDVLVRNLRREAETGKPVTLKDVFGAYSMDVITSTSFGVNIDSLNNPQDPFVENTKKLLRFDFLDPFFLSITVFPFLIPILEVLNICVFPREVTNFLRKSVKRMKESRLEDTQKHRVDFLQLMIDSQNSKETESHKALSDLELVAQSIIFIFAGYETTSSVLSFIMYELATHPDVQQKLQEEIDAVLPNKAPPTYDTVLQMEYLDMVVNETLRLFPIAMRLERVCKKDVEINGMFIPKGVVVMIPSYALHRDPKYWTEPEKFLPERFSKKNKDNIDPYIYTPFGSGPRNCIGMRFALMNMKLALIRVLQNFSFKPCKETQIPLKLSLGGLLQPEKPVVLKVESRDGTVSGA

CCOc1ccc2c(c1)C(=NNC(=O)c1ccncc1)c1cc(OCC)ccc1-2
EC50 [1]: 0.894 µM (active) | EC50 [2]: 0.825 µM (active) | EC50 [3]: > 60 µM (inconclusive) | EC50 [4]: 3.66 µM (active) | AC50 [5]: 26 µM (active)

Cc1cccc(N2CCN(CC(=O)NCC3CCCCC3)CC2)c1C
IC50 [6]: > 100 µM (active)

Cc1sc(NC(=O)C2C3CCC(O3)C2C(=O)O)c(C(=O)OC(C)C)c1-c1ccc(Cl)cc1 (centres undefined)
IC50 [7]: 10.1 µM (active) | IC50 [8]: > 20 µM (inactive) | AC50 [9]: 22.4 µM (inconclusive) | AC50 [10]: 15.8 µM (inconclusive)

c1ccc(-c2nnc(SCCC3OCCCO3)o2)cc1
EC50 [11]: 1.55 µM (active) | EC50 [12]: 0.936 µM (active) | EC50 [13]: 0.852 µM (active) | EC50 [14]: 0.604 µM (active) | IC90 [15]: 8 µM (active) | AC50 [16]: > 52 µM (inactive) | IC90 [17]: 8 µM (active) | IC90 [18]: 62 µM (active) | AC50 [19]: inconclusive

O=C(Nc1ccccc1Cl)c1cccc(NC(=O)C2CCCC2)c1
IC50 [20]: 5.78 µM (active) | IC50 [21]: 0.202 µM (active)

Cc1c(C(=O)C2=C(O)C(=O)N(CCN3CCOCC3)C2c2ccco2)cnn1-c1ccccc1 (centres undefined)
IC50 [22]: 21.1 µM (inactive)

Cc1ccc(-c2ccc3c(c2)O[C@H](CN(C)C(=O)CC2CC2)[C@H](C)CN([C@@H](C)CO)S3(=O)=O)cc1
AC50 [23]: 10.4 µM (active)

Fc1cccc(CN2C[C@@H]3N[C@H](C2)[C@@H]3c2ccc(-c3cccc(F)c3)cc2)c1
AC50 [24]: 23.4 µM (active) | AC50 [25]: 27.6 µM (active) | AC50 [26]: 4.43 µM (active) | AC50 [27]: 22.1 µM (active) | AC50 [28]: 19.5 µM (active) | AC50 [29]: 27 µM (active)

C[C@@H]1CN([C@@H](C)CO)C(=O)Cc2cc(NC(=O)C3CCCCC3)ccc2O[C@H]1CN(C)Cc1ccc(Cl)c(Cl)c1
AC50 [24]: 5.39 µM (active) | AC50 [30]: 28.6 µM (active) | AC50 [31]: 2.76 µM (active)

Cc1cc(OCCOCC[N+](C)(C)Cc2ccccc2)ccc1C(C)(C)CC(C)(C)C
IC50 [32]: > 40 µM (inactive) | IC50 [33]: 12 µM (inactive)
